Source: patent US6444643B1, “Methods of using inhibitors of cyclophilin rotamase activity to affect neurological activity” (priority 1995, dated 2002)
Where two headings read alike, the source gives them in different places. Numbered stars: 1 amine (or outer) side, 2 acyl side, 3 side chain; on linkers, the order of the positions; unused ones are H or OH. Square brackets hold non-standard residues; d marks the D form. Peptide text beside a SMILES is read from it. MeBmt = C/C=C/C[C@@H](C)[C@@H](O)[C@H](NC)C(=O)O; X1 = C[C@@H](O)[C@@](C)(C(=O)[*:2])N(C)[*:1]; NMeL = CN[C@@H](CC(C)C)C(=O)O; NMeV = CN[C@H](C(=O)O)C(C)C; NMeAbu = CC[C@H](NC)C(=O)O; Abu = CC[C@H](N)C(=O)O; Dha = C=C(N)C(=O)O; Sar = CNCC(=O)O

Experiments:
[1] = tested on: chick dorsal root ganglia explants; experiment: Chick dorsal root ganglion cultures and neurite outgrowth; assay type: cell-based; conditions: for Neurotrophic Potency, Neurite Outgrowth in Chick DRG: relative to cyclosporin A, 48 hours after drug treatment
cyclophilin A = cyclophilin A (Homo sapiens, UniProt P62937); experiment: Inhibition of peptidyl-prolyl isomerase (rotamase) activity of cyclophilin, chymotrypsin-coupled assay; assay type: biochemical
Sequence of cyclophilin A (P62937 whole entry, species assumed): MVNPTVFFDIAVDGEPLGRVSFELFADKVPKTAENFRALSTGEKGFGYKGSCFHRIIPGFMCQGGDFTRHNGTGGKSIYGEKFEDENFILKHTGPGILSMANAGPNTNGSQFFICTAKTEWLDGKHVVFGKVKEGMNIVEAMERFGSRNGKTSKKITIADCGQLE
Experimental: We evaluated the potencies of drugs in binding to cyclophilin A by examining inhibition of peptidyl prolyl-isomerase activity (Table 1).
The inhibition of this reaction caused by the addition of different concentrations of inhibitor is determined, and the data is analyzed as a change in first-order rate constant as a function of inhibitor concentration to yield the apparent Ki values. The absorbance at 390 nm versus time is monitored for 90 sec using a spectrophotometer and the rate constants are determined from the absorbance versus. time data files.

[2] = tested on: PC12 cells and sensory neurons, namely dorsal root ganglion cells (DRGS); conditions: picomolar concentrations; cited from earlier work
[3] = apparent Ki, substrate N-succinyl-Ala-Ala-Pro-Phe-p-nitroanilide, read-out: Ki, cyclophilin inhibition

Row | Compound | Neurotrophic Potency, Neurite Outgrowth in Chick DRG [1] | Ki (cyclophilin A; [3]) | Ki (cyclophilin A) | neurite outgrowth [2] | EC50 ([1]; chick DRG explants, from dose-response curves (FIG. 1), read-out: ED50, the dose at which 50% of the maximal response was elicited (neurite outgrowth))
1 | C/C=C/C[C@@H](C)[C@@H](O)[C@H]1C(=O)N[C@@H](CC)C(=O)N(C)CC(=O)N(C)[C@@H](CC)C(=O)N[C@@H](C(C)C)C(=O)N(C)[C@@H](CC(C)C)C(=O)N[C@@H](C)C(=O)N[C@H](C)C(=O)N(C)[C@@H](CC(C)C)C(=O)N(C)[C@@H](CC(C)C)C(=O)N(C)[C@@H](C(C)C)C(=O)N1C [Example 5, [Me-homoAla]^4-CsA] (cyclo([MeBmt][Abu][Sar][NMeAbu]V[NMeL]A[dA][NMeL][NMeL][NMeV])) | +++ | – | – | – | –
2 | CCCC[C@@H](C)[C@@H](O)[C@H]1C(=O)N[C@@H](CC)C(=O)N(C)CC(=O)N(C)[C@@H](CC(C)C)C(=O)N[C@@H](C(C)C)C(=O)N(C)[C@@H](CC(C)C)C(=O)N[C@@H](C)C(=O)N[C@H](C)C(=O)N(C)[C@@H](CC(C)C)C(=O)N(C)[C@@H](CC(C)C)C(=O)N(C)[C@@H](C(C)C)C(=O)N1C [Example 2, dihydro-CsA] | + | 100 nM | – | – | –
3 | C/C=C/C[C@@H](C)[C@@H](O)[C@H]1C(=O)N[C@@H](CC)C(=O)N(C)CC(=O)N(C)[C@@](C)([C@@H](C)O)C(=O)N[C@@H](C(C)C)C(=O)N(C)[C@@H](CC(C)C)C(=O)N[C@@H](C)C(=O)N[C@H](C)C(=O)N(C)[C@@H](CC(C)C)C(=O)N(C)[C@@H](CC(C)C)C(=O)N(C)[C@@H](C(C)C)C(=O)N1C [Example 6, [Me-(a-methyl)Thr]^4-CsA] (cyclo([MeBmt][Abu][Sar][X1]V[NMeL]A[dA][NMeL][NMeL][NMeV])) | +++ | – | – | – | –
4 | C/C=C/C[C@@H](C)[C@@H](O)[C@H]1C(=O)N[C@@H](CC)C(=O)N(C)CC(=O)N(C)[C@@H](C(C)C)C(=O)N[C@@H](C(C)C)C(=O)N(C)[C@@H](CC(C)C)C(=O)N[C@@H](C)C(=O)N[C@H](C)C(=O)N(C)[C@@H](CC(C)C)C(=O)N(C)[C@@H](CC(C)C)C(=O)N(C)[C@@H](C(C)C)C(=O)N1C [Example 4, [MeVal]^4-CsA] (cyclo([MeBmt][Abu][Sar][NMeV]V[NMeL]A[dA][NMeL][NMeL][NMeV])) | +++ | – | 10 nM | – | –
5 | C=C1NC(=O)[C@H](C)NC(=O)[C@H](CC(C)C)N(C)C(=O)[C@H](C(C)C)NC(=O)[C@H](CC(C)C)N(C)C(=O)CN(C)C(=O)[C@H](CC)NC(=O)[C@H]([C@H](O)[C@H](C)C/C=C/C)N(C)C(=O)[C@H](C(C)C)N(C)C(=O)[C@H](CC(C)C)N(C)C(=O)[C@H](CC(C)C)N(C)C1=O [Example 3, [dehydro-Ala]^8-CsA] (cyclo(A[Dha][NMeL][NMeL][NMeV][MeBmt][Abu][Sar][NMeL]V[NMeL])) | + | 75 nM | – | – | –
6 | cyclosporin A [Example 1, reference compound] | +++ | – | – | stimulates neurite out growth | 50 nM
